Reference: US20190321426A1, “COMBINATION THERAPIES WITH CANNABIS PLANT EXTRACT” (TIKUN OLAM LTD, priority 2016, published 2019)

Assay: Cutaneous wound (skin lesion) at the site of repeated s.c. Copaxone injection in EAE mice
Format: in vivo
Details: s.c. injection on the mice back; 7 mice/group
Protocol: The treatments were given daily, five times a week and usually continued for about 60 days. GA were given s.c (at an injection dose of 1 mg/mouse), and cannabis extracts were administrated i.p. (intraperitoneal).
In mice treated with the Copaxone only (2 out of 7 mice), a skin lesion developed on the mice back at the site of repeated Copaxone injections.

In the case of glatiramer acetate [Copaxone], the “skin lesion at the site of repeated Copaxone injections” value is reported as 2 out of 7.
